Assay results published in paper PMC7801053, “Diarylalkanoids as Potent Tyrosinase Inhibitors from the Stems of Semecarpus caudata” (Evidence-based Complementary and Alternative Medicine : eCAM, 2021).

Target: tyrosinase
Experiment: not given
Conditions: read-out: tyrosinase inhibitory constant (Ki); ref Choi et al. [25]; cited from earlier work

Row | SMILES | Ki [µM]
1 | O=c1[nH]cnc2nc[nH]c12 [Hypoxanthine] | > 1000

Target: Tyrosinase (EC 1.14.18.1) from mushroom
Experiment: Tyrosinase inhibitory assay (L-DOPA substrate, absorbance at 475 nm)
Conditions: read-out: IC50 (tyrosinase inhibitory activity); mushroom tyrosinase 15 U/mL, L-DOPA 1.5 mM, phosphate buffer pH 6.8, preincubated 30 min, n = 3
Experimental: Optical values were measured on a Shimadzu UV-1800 spectrophotometer (Shimadzu Pte., Ltd., Singapore). […] Tyrosinase (EC 1.14.18.1) from mushroom (3933 U·mL^−1) and L-dihydroxyphenylalanine (L-DOPA) were obtained from Sigma-Aldrich (Sigma-Aldrich Pte., Ltd., Singapore). Other chemicals were of the highest grade available.
All pure compounds were dissolved in DMSO and tested at concentrations ranging from 0.01 to 100 μM. Assay mixtures in 0.1 M phosphate buffer pH 6.8 were prepared immediately before use, consisting of 100 μL of tyrosinase solution (15 U/mL) and 1900 μL of test solution. These mixtures were preincubated at room temperature for 30 min, followed by addition of 1000 μL of L-DOPA 1.5 mM in pH 6.8 phosphate buffer and incubated at room temperature for 7 min. The absorbances (A) at 475 nm were acquired on Shimadzu UV-1800 spectrophotometer. The inhibitory percentage (I%) was calculated according to the formula: I% = ((Acontrol − Asample)/Acontrol) × 100%. Data were represented as means ± standard error (n = 3). The IC50 values were determined by using GraphPad Prism software with multivariate nonlinear regression and R^2 > 0.9.

Row | SMILES | IC50 [µM]
2 | O=C(/C=C/C=C/c1ccc(O)cc1O)c1ccc(O)cc1O [Compound 1, 2E,4E-1,5-bis(2,4-dihydroxyphenyl)penta-2,4-dien-1-one] | 0.033
3 | O=C(/C=C/c1ccc(O)cc1O)c1ccc(O)cc1O [Compound 8, 2,4,2′,4′-Tetrahydroxychalcone] | 0.016
4 | O=C(/C=C/C=C/C=C/c1ccc(O)cc1O)c1ccc(O)cc1O [Compound 2, 2E,4E,6E-1,7-bis(2,4-dihydroxyphenyl)hepta-2,4,6-trien-1-one] | 0.11
5 | O=C(O)/C=C/c1ccc(O)cc1 [Compound 4, p-coumaric acid] | 2.35
6 | COC1=CC(=O)C=C(OC)C1=O [Compound 3, 2,6-dimethoxybenzoquinone] | > 100
7 | CC(=O)/C=C/c1ccc(O)c(O)c1 [Compound 6, trans-4-(3,4-dihydroxyphenyl)but-3-en-2-one] | 27
8 | COc1cc(/C=C/C(=O)O)ccc1O [Compound 7, ferulic acid] | > 100
